Values of other authors, collected in patent US20210100740A1, “BIO-ADHESIVE DISSOLVING COMPOUNDS AND DEVICE” (Segal Innovations LLC, priority 2019, published 2021).

## CO[C@@]12[C@H](COC(N)=O)C3=C(C(=O)C(C)=C(N)C3=O)N1C[C@@H]1N[C@@H]12 [mitomycin]
Acidic solutions with a pH of less than 6, exposed to light
  degradation in acidic solutions and when exposed to light: rapid degradation
Refrigerated between 2° C. and 8° C. without being exposed to light
  how long mitomycin lasts: up to one week
